Reference: ChEMBL document CHEMBL3792388, “Ecdysones from Zoanthus spp. with inhibitory activity against dengue virus 2” (Bioorg Med Chem Lett, 2016)

Tests used:
[1] = Cytotoxicity against human HuH7 cells assessed as reduction in cell viability after 72 hrs by MTS assay; type: cell-based, Huh-7
dengue virus type 2 = assay: Antiviral activity against Dengue virus 2 DN454009A infected in human HuH7 cells assessed as inhibition of viral RNA level measured 72 hrs post infection by qRT-PCR method; type: functional, organism-based; conditions: Huh-7, 72 h
[2] = Selectivity index, ratio of CC50 for human HuH7 cells to EC50 for Dengue virus 2 DN454009A infected in human HuH7 cells; type: toxicity, cell-based, Huh-7; conditions: read-out: Ratio CC50/EC50
dengue virus type 3 = assay: Antiviral activity against Dengue virus 3 DN8700829A infected in human HuH7 cells assessed as inhibition of viral RNA level measured 72 hrs post infection by qRT-PCR method; type: functional, organism-based; conditions: Huh-7, 72 h
dengue virus type 1 = assay: Antiviral activity against Dengue virus 1 DN8700828 infected in human HuH7 cells assessed as inhibition of viral RNA level measured 72 hrs post infection by qRT-PCR method; type: functional, organism-based; conditions: DN8700828, Huh-7, 72 h
dengue virus type 4 = assay: Antiviral activity against Dengue virus 4 S9201818 infected in human HuH7 cells assessed as inhibition of viral RNA level measured 72 hrs post infection by qRT-PCR method; type: functional, organism-based; conditions: S9201818, Huh-7, 72 h

SMILES	CC50 at 72 h [1] [µM]	EC50 (dengue virus type 2) [µM]	selectivity ratio [2]	EC50 (dengue virus type 3) [µM]	EC50 (dengue virus type 1) [µM]	EC50 (dengue virus type 4) [µM]
CC(C)(O)CC[C@@H](O)[C@](C)(O)[C@H]1CC[C@@]2(O)C3=CC(=O)[C@@H]4C[C@@H](O)CC[C@]4(C)[C@H]3CC[C@]12C	> 700	> 100	–	–	–	–
C=C(C[C@@H](O)[C@](C)(O)[C@H]1CC[C@@]2(O)C3=CC(=O)[C@@H]4C[C@@H](O)[C@@H](O)C[C@]4(C)[C@H]3CC[C@]12C)C(C)(C)O	> 700	> 100	–	–	–	–
C[C@H]([C@H](O)CCC(C)(C)O)[C@H]1CC[C@@]2(O)C3=CC(=O)[C@@H]4C[C@@H](O)[C@@H](O)C[C@]4(C)[C@H]3CC[C@]12C [ECDYSONE]	> 700	54.3	> 12.9	–	–	–
CC(C)(O)CC[C@@H](O)[C@](C)(O)[C@H]1CC[C@@]2(O)C3=CC(=O)[C@@H]4C[C@@H](O)[C@@H](O)C[C@]4(C)[C@H]3CC[C@]12C [20-HYDROXYECDYSONE]	> 700	53.6	> 13.1	–	–	–
C[C@H](O)[C@H]1CC[C@@]2(O)C3=CC(=O)[C@@H]4C[C@@H](O)[C@@H](O)C[C@]4(C)[C@H]3CC[C@]12C	> 700	> 100	–	–	–	–
CC(C)CC[C@@H](O)[C@](C)(O)[C@H]1CC[C@@]2(O)C3=CC(=O)[C@@H]4C[C@@H](O)[C@@H](O)C[C@]4(C)[C@H]3CC[C@]12C [PONASTERONE A]	> 700	> 100	–	–	–	–
CC(=O)O[C@@H]1C[C@H]2C(=O)C=C3[C@H](CC[C@]4(C)[C@@H]([C@@](C)(O)[C@H](O)CCC(C)(C)O)CC[C@@]34O)[C@@]2(C)C[C@@H]1O	> 700	87.3	> 8	–	–	–
CC(=O)OC(C)(C)CC[C@@H](O)[C@](C)(O)[C@H]1CC[C@@]2(O)C3=CC(=O)[C@@H]4C[C@@H](O)[C@@H](O)C[C@]4(C)[C@H]3CC[C@]12C	> 700	39.8	> 17.6	–	–	–
C[C@@]1(O)[C@H](O)[C@@H](CO)O[C@H]1n1ccc(N)nc1=O	94.8	11.2	> 8.5	–	–	–
CC(CO)CC[C@@H](O)[C@](C)(O)[C@H]1CC[C@@]2(O)C3=CC(=O)[C@@H]4C[C@@H](O)[C@@H](O)C[C@]4(C)[C@H]3CC[C@]12C (some centres not stated) [INOKOSTERONE]	> 700	> 100	–	–	–	–
CC(C)CC[C@@H](O)[C@](C)(O)[C@H]1CC[C@@]2(O)C3=CC(=O)[C@@H]4C[C@@H](O)[C@@H](O)C[C@]4(C)[C@H]3[C@H](O)C[C@]12C	> 700	10.1	> 69.7	9.48	15.7	12.2
CC(=O)OC(C)(C)CC[C@@H](O)[C@](C)(O)[C@H]1CC[C@@]2(O)C3=CC(=O)[C@@H]4C[C@@H](O)[C@@H](O)C[C@]4(C)[C@H]3[C@H](O)C[C@]12C	> 700	19.6	> 36.7	–	–	–
CC(C)(O)CC[C@@H](O)[C@](C)(O)[C@H]1CC[C@@]2(O)C3=CC(=O)[C@@H]4C[C@@H](O)[C@@H](O)C[C@]4(C)[C@H]3[C@H](O)C[C@]12C [TURKESTERONE]	> 700	38.1	> 18.3	–	–	–
